Like-named read-outs stand apart in the source and are kept apart here.
Key:
[1] = Parotid gland uptake in normal mice without folate-free diet; assay type: in vivo; conditions: no folate-free diet
OVCAR-3 tumors = test: Biodistribution and PET/CT imaging in mice model bearing OVCAR-3 tumor; assay type: in vivo, SCID mice
Protocol: Similar protocol was used for OVCAR-3 tumor models.
For the kidney blocking the antifolate Alimta, at a concentration of 4 mg/ml in PBS pH 7.4 was used.
For the Folate Receptors blocking Folic acid in 100-fold excess (400 nmol/ml) in PBS pH 7.4 was used.

KB tumor cells (FR+) [2] = test: Biodistribution of NODAGA-LINKER-FOLATE-Ga68 in nude mice bearing KB-tumors; assay type: in vivo; conditions: for Ratio tumor:blood / Ratio tumor:bone / Ratio tumor:kidney / Ratio tumor:liver / Ratio tumor:muscle / Ratio tumor:pancreas / Ratio tumor:parotid: 1 h post-injection
Protocol: The NODAGA-LINKER-FOLATE derivative was labeled with ^68Ga using the Modular-Lab automatic system by Eckert & Ziegler.
NODAGA-LINKER-FOLATE-Ga68 compound (compound 2) was obtained in radiochemical purity preferably >92 to >98%.
(§1) At D0, the tumor inoculation was performed as follow: One million (10^6) of KB tumor cells (FR+) resuspended at 1×10^7 cells/ml in sterile PBS 0.01M, pH 7.4, were subcutaneously inoculated in the right flank of the nude mice in a volume of 100 μl.
At D8 biodistribution studies and PET/CT images were performed for NODAGA-folate-Ga68 (compound 2) in 2 groups of mice as follow: • 1 group: injection with NODAGA-LINKER-FOLATE-Ga68 (compound 2) (0.4 nmol/2 MBq/100 μl/mouse) • 1 group: injection of Alimta (400 μg/100 μl/mouse) 1 h before the injection of NODAGA-LINKER-FOLATE-Ga68 (compound 2) • Time point: 1 h p.i.

ovarian cancer = conditions: patients, phase I/II study; cited from earlier work
KB tumor cells (FR+) [3] = system: KB tumor cells (FR+)
Protocol: Nude mice bearing KB-tumors were used for this study.
The NODAGA-LINKER-FOLATE derivative was labeled with ^67Ga by incubation at RT with 37 MBq of ^67GaCl3 in HEPES buffer. […] It was diluted with 0.9% NaCl at a concentration of 4 nmol/ml and this solution was injected to the mice (100 μl/0.4 nmol/mouse).
One week before the tumor cell inoculation all mice were put under a folate low diet (SAFE company, semi-synthetic product with 50 μg/kg of folate) until the end of the study.
as §1, with “μl. The tumors were allowed to grow for 8-9 days. For the in vivo evaluation the mice were grouped in groups of 3 mice per group.” for “μl.”
At D9 biodistribution studies were performed for the ^67Ga-NODAGA-LINKER-FOLATE (compound 2′ complexed by Ga67) in groups of mice as follow: • 3 groups: injection with ^67Ga-NODAGA-LINKER-FOLATE (compound 2′ complexed by Ga67) (0.4 nmol/10 μCi/100 μl/mouse) • 1 group: injection of Folic acid (40 nmol/100 μl/mouse) 5 min before the injection of ^67Ga-NODAGA-LINKER-FOLATE (compound 2′ complexed by Ga67) • 1 group: injection of Alimta (400 μg/100 μl/mouse) 1 h before the injection of ^67Ga-NODAGA-LINKER-FOLATE (compound 2′ complexed by Ga67) • Time points: 2 h, 4 h, 4 h (blocking with FA), 4 h (kidney blocking with Alimta), 24 h p.i. Results

[4] = Group 1: Alimta 400 μg/mouse 1 h pre-injection
[5] = 4 h Alimta pre-injection (400 μg/mouse, 1 h)
[6] = 4 h blocking with Folic acid (100-fold excess, 5 min pre-injection)

SMILES: Nc1nc2ncc(CNc3ccc(C(=O)N[C@@H](CCC(=O)NCCNC(=O)CCC(C(=O)O)N4CCN(CC(=O)O)CCN(CC(=O)O)CC4)C(=O)O)cc3)nc2c(=O)[nH]1 (some centres unmarked) [NODAGA-LINKER-FOLATE-Ga68, folate-NODAGA-Ga68, metal not drawn]
- High uptake in the parotid gland [1]: This was not the case
- PET/CT images: background (OVCAR-3 tumors; 1 h post injection): negligible background
- PET/CT images: kidneys (OVCAR-3 tumors; 1 h post injection): high uptake in the kidneys
- PET/CT images: tumors (OVCAR-3 tumors; 1 h post injection): clear visualization of the tumors
- Quality of PET/CT images (OVCAR-3 tumors; mouse, in vivo): Very satisfying
- Ratio tumor:blood (KB tumor cells (FR+) [2]; [4]): 49.33
- Ratio tumor:bone (KB tumor cells (FR+) [2]; [4]): 20.96
- Ratio tumor:kidney (KB tumor cells (FR+) [2]; [4]): 0.69
- Ratio tumor:liver (KB tumor cells (FR+) [2]; [4]): 10.49
- Ratio tumor:muscle (KB tumor cells (FR+) [2]; [4]): 13.32
- Ratio tumor:pancreas (KB tumor cells (FR+) [2]; [4]): 9.30
- Ratio tumor:parotid (KB tumor cells (FR+) [2]; [4]): 2.63
- Ratio tumor:blood (KB tumor cells (FR+) [2]; Group 2: no Alimta): 64.85
- Ratio tumor:bone (KB tumor cells (FR+) [2]; Group 2: no Alimta): 28.11
- Ratio tumor:kidney (KB tumor cells (FR+) [2]; Group 2: no Alimta): 0.17
- Ratio tumor:liver (KB tumor cells (FR+) [2]; Group 2: no Alimta): 6.64
- Ratio tumor:muscle (KB tumor cells (FR+) [2]; Group 2: no Alimta): 9.95
- Ratio tumor:pancreas (KB tumor cells (FR+) [2]; Group 2: no Alimta): 6.89
- Ratio tumor:parotid (KB tumor cells (FR+) [2]; Group 2: no Alimta): 1.72
- Uptake in the parotid gland (KB tumor cells (FR+) [2]; KB-tumor mice under folate-free diet): High uptake

SMILES: Nc1nc2ncc(CNc3ccc(C(=O)N[C@@H](CCC(=O)NCCNC(=O)CN(CCN(CCN(CC(=O)[O-])CC(=O)[O-])CC(=O)[O-])CC(=O)[O-])C(=O)O)cc3)nc2c(=O)[nH]1.[111In] [111In-DTPA-folate]
- Target-tissue uptake and non target-tissue clearance (ovarian cancer): rapid target-tissue uptake and non target-tissue clearance

SMILES: Nc1nc2ncc(CNc3ccc(C(=O)N[C@@H](CCC(=O)NCCNC(=O)CCC(C(=O)[O-])N4CCN(CC(=O)[O-])CCN(CC(=O)[O-])CC4)C(=O)O)cc3)nc2c(=O)[nH]1.[67Ga+3] (some centres unmarked) [NODAGA-LINKER-FOLATE-Ga67]
- Biodistribution, Parotid gland (KB tumor cells (FR+) [3]; 2 h): 9.10 ± 3.39
- Biodistribution, adrenal (KB tumor cells (FR+) [3]; 2 h): 3.09 ± 0.52
- Biodistribution, blood (KB tumor cells (FR+) [3]; 2 h): 0.09 ± 0.02
- Biodistribution, intestine (KB tumor cells (FR+) [3]; 2 h): 0.50 ± 0.12
- Biodistribution, kidney (KB tumor cells (FR+) [3]; 2 h): 142.14 ± 15.46
- Biodistribution, liver (KB tumor cells (FR+) [3]; 2 h): 1.38 ± 0.50
- Biodistribution, lung (KB tumor cells (FR+) [3]; 2 h): 1.32 ± 0.15
- Biodistribution, muscle (KB tumor cells (FR+) [3]; 2 h): 1.49 ± 0.18
- Biodistribution, pancreas (KB tumor cells (FR+) [3]; 2 h): 2.91 ± 0.08
- Biodistribution, pituitary (KB tumor cells (FR+) [3]; 2 h): 0.53 ± 0.24
- Biodistribution, spleen (KB tumor cells (FR+) [3]; 2 h): 0.48 ± 0.11
- Biodistribution, stomach (KB tumor cells (FR+) [3]; 2 h): 1.58 ± 0.12
- Biodistribution, Parotid gland (KB tumor cells (FR+) [3]; 4 h): 8.58 ± 2.33
- Biodistribution, adrenal (KB tumor cells (FR+) [3]; 4 h): 2.80 ± 0.10
- Biodistribution, blood (KB tumor cells (FR+) [3]; 4 h): 0.06 ± 0.01
- Biodistribution, intestine (KB tumor cells (FR+) [3]; 4 h): 0.43 ± 0.16
- Biodistribution, kidney (KB tumor cells (FR+) [3]; 4 h): 130.31 ± 14.65
- Biodistribution, liver (KB tumor cells (FR+) [3]; 4 h): 1.07 ± 0.18
- Biodistribution, lung (KB tumor cells (FR+) [3]; 4 h): 1.36 ± 0.37
- Biodistribution, muscle (KB tumor cells (FR+) [3]; 4 h): 2.12 ± 0.31
- Biodistribution, pancreas (KB tumor cells (FR+) [3]; 4 h): 2.92 ± 0.11
- Biodistribution, pituitary (KB tumor cells (FR+) [3]; 4 h): 0.79 ± 0.74
- Biodistribution, spleen (KB tumor cells (FR+) [3]; 4 h): 0.46 ± 0.10
- Biodistribution, stomach (KB tumor cells (FR+) [3]; 4 h): 1.47 ± 0.08
- Biodistribution, Parotid gland (KB tumor cells (FR+) [3]; [5]): 6.10 ± 2.09
- Biodistribution, adrenal (KB tumor cells (FR+) [3]; [5]): 1.75 ± 0.23
- Biodistribution, blood (KB tumor cells (FR+) [3]; [5]): 0.04 ± 0.01
- Biodistribution, intestine (KB tumor cells (FR+) [3]; [5]): 0.50 ± 0.37
- Biodistribution, kidney (KB tumor cells (FR+) [3]; [5]): 19.13 ± 6.66
- Biodistribution, liver (KB tumor cells (FR+) [3]; [5]): 0.88 ± 0.26
- Biodistribution, lung (KB tumor cells (FR+) [3]; [5]): 0.68 ± 0.18
- Biodistribution, muscle (KB tumor cells (FR+) [3]; [5]): 1.26 ± 0.38
- Biodistribution, pancreas (KB tumor cells (FR+) [3]; [5]): 2.20 ± 0.69
- Biodistribution, pituitary (KB tumor cells (FR+) [3]; [5]): 0.59 ± 0.41
- Biodistribution, spleen (KB tumor cells (FR+) [3]; [5]): 0.31 ± 0.13
- Biodistribution, stomach (KB tumor cells (FR+) [3]; [5]): 0.84 ± 0.31
- Biodistribution, Parotid gland (KB tumor cells (FR+) [3]; [6]): 0.18 ± 0.06
- Biodistribution, adrenal (KB tumor cells (FR+) [3]; [6]): 0.02 ± 0.01
- Biodistribution, blood (KB tumor cells (FR+) [3]; [6]): 0.00 ± 0.00
- Biodistribution, intestine (KB tumor cells (FR+) [3]; [6]): 0.08 ± 0.07
- Biodistribution, kidney (KB tumor cells (FR+) [3]; [6]): 6.49 ± 1.03
- Biodistribution, liver (KB tumor cells (FR+) [3]; [6]): 0.06 ± 0.00
- Biodistribution, lung (KB tumor cells (FR+) [3]; [6]): 0.06 ± 0.00
- Biodistribution, muscle (KB tumor cells (FR+) [3]; [6]): 0.03 ± 0.00
- Biodistribution, pancreas (KB tumor cells (FR+) [3]; [6]): 0.05 ± 0.00
- Biodistribution, pituitary (KB tumor cells (FR+) [3]; [6]): −0.02 ± 0.01
- Biodistribution, spleen (KB tumor cells (FR+) [3]; [6]): 0.04 ± 0.01
- Biodistribution, stomach (KB tumor cells (FR+) [3]; [6]): 0.09 ± 0.06
- Biodistribution, Parotid gland (KB tumor cells (FR+) [3]; 24 h): 5.57 ± 0.82
- Biodistribution, adrenal (KB tumor cells (FR+) [3]; 24 h): 5.04 ± 5.96
- Biodistribution, blood (KB tumor cells (FR+) [3]; 24 h): 0.04 ± 0.02
- Biodistribution, intestine (KB tumor cells (FR+) [3]; 24 h): 0.37 ± 0.13
- Biodistribution, kidney (KB tumor cells (FR+) [3]; 24 h): 97.62 ± 11.59
- Biodistribution, liver (KB tumor cells (FR+) [3]; 24 h): 0.87 ± 0.16
- Biodistribution, lung (KB tumor cells (FR+) [3]; 24 h): 0.94 ± 0.31
- Biodistribution, muscle (KB tumor cells (FR+) [3]; 24 h): 1.14 ± 0.01
- Biodistribution, pancreas (KB tumor cells (FR+) [3]; 24 h): 2.37 ± 0.17
- Biodistribution, pituitary (KB tumor cells (FR+) [3]; 24 h): 0.41 ± 0.39
- Biodistribution, spleen (KB tumor cells (FR+) [3]; 24 h): 0.37 ± 0.13
- Biodistribution, stomach (KB tumor cells (FR+) [3]; 24 h): 1.01 ± 0.10
- Time of maximum tumor uptake (KB tumor cells (FR+) [3]; KB-tumor bearing nude mice): 2 h p.i.
- Tumor uptake (KB tumor cells (FR+) [3]; at 24 h p.i.): remains high
- Specificity of tumor uptake (KB tumor cells (FR+) [3]; blocking experiment with folic acid): specific
- Kidney uptake (KB tumor cells (FR+) [3]; with the use of Alimta): significantly reduced
- Tumor uptake (KB tumor cells (FR+) [3]; with the use of Alimta): remained the same

Source: patent US8986650B2, “Complex folate-NOTA-Ga68” (Guerbet, priority 2005, dated 2015)
